# Measured values: publication PMC6272797, “Antitrypanosomal Acetylene Fatty Acid Derivatives from the Seeds of Porcelia macrocarpa (Annonaceae)” (Molecules, 2015)
# Like-named read-outs stand apart in the source and are kept apart here.
# Columns and labels:
# [1] = system: T. cruzi trypomastigotes (Y strain); experiment: Activity against T. cruzi trypomastigotes (MTT viability assay); assay type: cell-based, Trypanosoma cruzi; conditions: for SI (selectivity index): CC50 NCTC cells/IC50 trypomastigotes; for IC50: Trypanosoma cruzi, free trypomastigotes, read-out: IC50 T. cruzi trypomastigote; for IC50 / antitrypanosomal activity against T. cruzi trypomastigotes (in words): MTT; for antitrypanosomal activity against T. cruzi trypomastigotes (in words): in vitro
# Method: T. cruzi trypomastigotes (Y strain) were maintained in LLC-MK2 (ATCC CCL 7) cells using RPMI-1640 medium supplemented with 2% FBS at 37 °C and 5% CO2-humidified incubator [34].
# Free trypomastigotes obtained from LLC-MK2 cultures were counted in a Neubauer hemocytometer and seeded at 1 × 10^6/well in 96-well microplates. Tested compounds were incubated to the highest concentration of 300 μg/mL for 24 h at 37 °C in a 5% CO2 humidified incubator; using benznidazole as standard drug. The viability of the trypomastigotes was verified by the MTT assay as previously described.
# The data obtained represent the mean and standard deviation of duplicate samples from three independent assays. The IC50 and CC50 values were calculated using sigmoid dose-response curves in Graph Pad Prism 5.0 software (GraphPad Software, San Diego, CA, USA), and the 95% confidence intervals are included in parentheses.
# [2] = Cytotoxicity against mammalian cells (MTT assay); assay type: cell-based; conditions: mouse, NCTC clone 929 cells
# Method: The 50% cytotoxic concentration (CC50) was determined in NCTC clone 929 cells. NCTC cells were seeded at 6 × 10^4 cells/well in 96-well microplates at 37 °C in a 5% CO2. […] The viability of the cells was determined by MTT assay at 570 nm. The Selectivity Index (SI) was determined considering the following equation: CC50 NCTC cells/IC50 trypomastigotes. […] The data obtained represent the mean and standard deviation of duplicate samples from three independent assays. The IC50 and CC50 values were calculated using sigmoid dose-response curves in Graph Pad Prism 5.0 software (GraphPad Software, San Diego, CA, USA), and the 95% confidence intervals are included in parentheses.
# [3] = 24 h, 24 h, highest concentration 300 µg/mL, CI95% in parentheses
# [4] = highest concentration 100 µg/mL, CI95% in parentheses
"IC50 [1, 3]","IC50 ([1]; 24 h, 24 h)",Compound,SI (selectivity index) [1],CC50 at 48 h [2],"CC50 at 48 h [2, 4]",antitrypanosomal activity against T. cruzi trypomastigotes (in words) [1],"trypomastigote forms of T. cruzi killed ([1]; at the highest tested concentration (300 µg/mL), 24 h)",effectiveness relative to the standard drug benznidazole ([1]; comparison of IC50 against trypomastigotes)
139 µg/mL,534 µM,"O=C(Cn1ccnc1[N+](=O)[O-])NCc1ccccc1 [Benznidazole, benznidazole, reference compound]",0.9,484 µM,126 µg/mL,–,–,–
> 300 µg/mL,–,"CCCC#CC#CCCCCCCCCCCC(=O)OCC(O)COC(=O)CCCCCCC/C=C\CCCCCCCC (stereo not drawn) [Compound 3, α-macrocarpoyl-α'-oleylglycerol]",–,–,–,inactive,–,–
10.7 µg/mL,38.8 µM,"CCCC#CC#CCCCCCCCCCCC(=O)O [Compound 1, 12,14-octadecadiynoic acid]",4.1,160 µM,44.3 µg/mL,displayed in vitro activity,100%,approximately ten times more effective
> 300 µg/mL,–,"CCCCCCCCCCCCCCCCCC(=O)O [Compound 1a, octadecanoic acid]",–,–,–,–,–,–
> 300 µg/mL,–,"CCCC#CC#CCCCCCCCCCCC(=O)OCC(COC(=O)CCCCCCCCCCC#CC#CCCC)OC(=O)CCCCCCC/C=C\CCCCCCCC [Compound 2, α,α'-dimacrocarpoyl-β-oleylglycerol]",–,–,–,inactive,–,–
